Our source for the EC50 and CC50 values is patent publication US9724351B2, “Compounds for the treatment of paramoxyvirus viral infections” (priority 2012, dated 2017).

Series [1] deals with Respiratory Syncytial Virus (RSV) long strain (ATCC#VR-26). The series is described as follows: RSV Antiviral Assay (CPE reduction assay). The settings on record: human respiratory syncytial virus, 120 h; HEp-2 cells infected with RSV long strain, 5 days, CCK-8 readout; bins (Table 2: less than 1 μM; Table 3: equal to or higher than 1 μM and less than 50 μM); read-out: 50% effective concentration (EC50). It counts as cell-based. The method, boiled down:
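HEp-2 cells infected with 100 TCID50 RSV long strain per well, compounds from 100 μM or 1 μM in 9-point ⅓ dilutions, duplicates, 1% DMSO. After 5 days at 37 °C, viable cells measured by CCK-8 (A450, 630 nm background); EC50 by regression on mean O.D.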

Series [2] is described as follows: Cytotoxicity Determination. The settings on record: human, HEp-2 cells, without addition of virus, CCK-8 readout, bins (Table 4: greater than 100 μM; Table 5: equal to or less than 100 μM and greater than 10 μM), read-out: 50% cytotoxicity concentration (CC50). The series is classed as cell-based. The method, boiled down: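 Uninfected cells were exposed to compounds in duplicate over a 7-point ½ dilution series starting at 100 μM final, for 5 days at 37 °C, 5% CO2. CCK-8 was then added for 3-4 h, and CC50 was calculated from optical density.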

Consider `COc1ccc(C(=O)NCC(=O)N/N=C/c2c(C)sc3ccccc23)cc1OC` [Compound 400], for which the EC50 in series [1] was in the range of 1 to 50 µM. In series [2], the CC50 at 5 days was in the range of 10 to 100 µM.
Consider `COc1ccc(C(=O)NCC(=O)c2cccc(-n3ncc4c(F)cccc43)n2)cc1OC` [Compound 2601], for which the EC50 in series [1] is 1 to 50 µM. In addition, the CC50 at 5 days in series [2] was > 100 µM.
Consider `CCCN(/N=C/c1csc2c(F)cccc12)C(=O)CNC(=O)c1ccc(OCCO)c(OC)c1` [Compound 2302], for which the EC50 in series [1] is < 1 µM. The CC50 at 5 days in series [2] was 10 to 100 µM.
Take `COc1ccc(C(=O)NCC(=O)c2ccc(OC)c(-c3csc4ccccc34)n2)cc1OC` [Compound 1508]: the EC50 in series [1] was < 1 µM. The CC50 at 5 days in series [2] is > 100 µM.
Consider `COc1cc(C(=O)NCC(=O)c2cc(OC)c(OC)c(-c3csc4c(F)cccc34)n2)ccc1OCCO` [Compound 2108], for which, in series [1], the EC50 was < 1 µM. In addition, in series [2], the CC50 at 5 days was > 100 µM.
As to `COCC/C(=N/NC(=O)CNC(=O)c1ccc(OCCO)c(OC)c1)c1csc2c(F)cccc12` [Compound 603B], the EC50 in series [1] is < 1 µM. The CC50 at 5 days in series [2] is > 100 µM.
The matching figures for `COc1ccc(C(=O)NCC(=O)N/N=C(/c2csc3ccccc23)C(F)F)cc1OC` [Compound 445]: 1 to 50 µM and > 100 µM.
Consider `COc1ccc(C(=O)NCC(=O)N/N=C(\C)c2c(C)sc3ccccc23)cc1OC` [Compound 413], for which, in series [1], the EC50 lay within 1 to 50 µM. Also, the CC50 at 5 days in series [2] was 10 to 100 µM.
The matching figures for `COc1cc(C(=O)NCC(=O)c2ccc(OC)c(-c3ccc(F)c(Br)c3)n2)ccc1OCc1ncn[nH]1` [Compound 3903]: < 1 µM and > 100 µM.
Consider `COc1ccc(C(=O)NCC(=O)N/N=C/c2c(C)n(C)c3ccccc23)cc1OC` [Compound 486], for which the EC50 in series [1] fell in the range of 1 to 50 µM. In addition, the CC50 at 5 days in series [2] lay within 10 to 100 µM.
The matching figures for `COC(=O)c1cc(C(=O)CNC(=O)c2ccc(OCCO)c(OC)c2)nc(-c2csc3c(F)cccc23)c1` [Compound 1257]: 1 to 50 µM and > 100 µM.
On to `COc1ccc(C(=O)NCC(=O)N/N=C/c2csc3ccccc23)cc1OC` [Compound 401], for which, in series [1], the EC50 lay in the range of 1 to 50 µM. Moreover, the CC50 at 5 days in series [2] lay within 10 to 100 µM.
The matching figures for `COc1ccc(C(=O)NCC(=O)N2CCCC(c3ccc(F)c4sccc34)=N2)cc1OC` [Compound 3500]: < 1 µM and > 100 µM.
As for `COc1cc(C(=O)NCC(=O)c2cccc(-c3csc4c(F)cccc34)n2)ccc1OCC(=O)O` [Compound 1248], the EC50 in series [1] fell in the range of 1 to 50 µM. The CC50 at 5 days in series [2] fell in the range of 10 to 100 µM.
On to `COc1ccc(C(=O)CNC(=O)c2ccnc(C)c2)nc1-c1ccc(F)c(Cl)c1` [Compound 4204], for which the EC50 in series [1] lay in the range of 1 to 50 µM. The CC50 at 5 days in series [2] is > 100 µM.
On to `COc1cc(C(=O)NCC(=O)N/N=C/c2csc3c(F)cccc23)ccc1OCCO` [Compound 604], for which the EC50 in series [1] is < 1 µM. In addition, the CC50 at 5 days in series [2] is > 100 µM.
In the case of `CCOc1ccc(C(=O)NCC(=O)N/N=C(\C)c2csc3ccccc23)cc1N(CC)CC` [Compound 505], in series [1], the EC50 was 1 to 50 µM. Moreover, the CC50 at 5 days in series [2] is 10 to 100 µM.
The matching figures for `C=C(C)/C(=N\NC(=O)CNC(=O)c1ccc(OC)c(OC)c1)c1csc2ccccc12` [Compound 434]: 1 to 50 µM and > 100 µM.
As to `CNc1ccc(C(=O)CNC(=O)c2ccc(OCCO)c(OC)c2)nc1-c1csc2c(F)cccc12` [Compound 1253], the EC50 in series [1] was < 1 µM. The CC50 at 5 days in series [2] is > 100 µM.
The matching figures for `COc1ccc(C(=O)NCC(=O)N2CCCC(c3csc4c(F)cccc34)=N2)cc1OC` [Compound 3501]: < 1 µM and 10 to 100 µM.
The matching figures for `COc1ccc(C(=O)NC(C)(C)C(=O)c2cccc(-c3csc4c(F)cccc34)n2)cc1OC` [Compound 1340]: 1 to 50 µM and > 100 µM.
Take `CCOc1ccc(C(=O)NCC(=O)N/N=C(\CCOC)c2csc3c(F)cccc23)cc1OC` [Compound 463A]: the EC50 in series [1] is < 1 µM. For the same molecule, in series [2], the CC50 at 5 days is > 100 µM.
